Test results reported in patent publication US10550117B2, “2-azabicyclo[3.1.0]hexan-3-one derivatives and methods of use” (Genentech, Inc., priority 2016, dated 2020).
One block for each compound: values may come before it.

What was measured:
[1] = biological target: nuclear factor-kappa B (NF-kB)-inducing kinase (NIK) (Homo sapiens (Human), UniProt Q99558); assay: NIK enzyme inhibition assay (Transcreener ADP fluorescence polarization); type: biochemical; details: for NIK enzyme inhibition, potency in words relative to the other stereoisomers: stereoisomers separated by chiral SFC, qualitative; for Ki: purified NIK 0.5 nM, 10 μM ATP, Morrison equation, read-out: NIK ADP-FP Ki
Experimental: The ability of the nuclear factor-kappa B (NF-kB)-inducing kinase (NIK) to catalyze the hydrolysis of adenosine-5′-triphosphate (ATP) was monitored using the Transcreener ADP (adenosine-5′-diphosphate) assay (BellBrook Labs). […] Reactions were quenched by the addition of 20 mM 2,2′,2″,2′″-(ethane-1,2-diyldinitrilo)tetraacetic acid and 0.01% Brij 35. The tracer bound to the antibody was displaced by the ADP generated during the NIK reaction, which causes a decrease in fluorescence polarization that was measured by laser excitation at 633 nm with a Fluorescence Correlation Spectroscopy Plus reader (Evotec AG). Equilibrium dissociation constant (Ki) values for NIK inhibitors are calculated from plots of activity vs. inhibitor concentration using Morrison's quadratic equation that accounts for the potential of tight binding, and by also applying the conversion factor that accounted for competitive inhibition and the concentration of substrate used in the assay relative to its Michaelis constant (Km).

[2] = Liver microsome stability; type: in vitro ADME; details: for HLM CL (human liver microsome clearance): human liver microsomes; for stability in human liver microsomes versus the corresponding pyrrolidinone comparator compound: qualitative comparison
Experimental: Metabolic stability assays in liver microsomes are conducted with pooled female CD-1 mouse, male Sprague-Dawley rat, male beagle dog, male cynomolgus monkey, and mixed male and female human liver microsomal incubations. The general assay conditions are as follows. Incubation mixtures consisted of liver microsomes (0.5 mg of microsomal protein/ml) and the test compound (1.0 μM) with or without NADPH (1.0 mM) in the potassium phosphate buffer (100 mM; pH 7.4) with a final incubation volume of 0.25 ml. Reactions are initiated by the addition of NADPH or buffer and shaken in a water bath open to the air at 37° C. At times 0, 20, 40, and 60 min, aliquots (50 μl) are removed and added to termination mixtures (100 μl) containing acetonitrile and an internal standard. The samples are then centrifuged for 10 min at 2000 g. The supernatant (90 μl) is removed, combined with 180 μl of water, and analyzed by LC-MS/MS.
Metabolic stability of the test compounds were evaluated in human liver microsomes following known protocols described in Halladay, et al. Drug Metabol. Lett. 2007, 1:67-72.

[3] = Hepatocyte stability; type: in vitro ADME; details: human hepatocytes
Experimental: General. Metabolic stability assays in hepatocytes are conducted using cryopreserved pooled female CD-1 mouse, male Sprague-Dawley rat, male beagle dog, male cynomolgus monkey, and mixed male and female human hepatocytes (CellzDirect). Vials of hepatocytes are thawed rapidly in a water bath set at 37° C. and then are diluted with Dulbecco's modified Eagle's medium (DMEM), pH 7.4. Cells are isolated by centrifugation, pooled, and resuspended in DMEM at 1.0 million viable cells/ml. Membrane integrity of the cells is assessed by trypan blue exclusion. The test compound is dissolved in dimethyl sulfoxide at a final concentration of 10 mM. This test compound stock is diluted further to 2 μM in DMEM (125 μl) before the addition of an equal volume of the 10^6 cells/ml cell suspension. The test compound (final incubation concentration of 1.0 μM with 0.1% dimethyl sulfoxide) and cells (final concentration of 0.5×10^6 cells/ml) are incubated at 37° C. in a 95% air/5% CO2 atmosphere for 3 h. Aliquots (50 μl) are removed at 0, 1, 2, and 3 hours and added to termination mixtures (100 μl) containing acetonitrile and an internal standard. The samples are then centrifuged for 10 min at 2000 g. The supernatant (90 μl) is removed, combined with 180 μl of water, and analyzed by LC-MS/MS.
Metabolic stability of the test compounds were evaluated also in human hepatocytes, following protocols described in Hallifax, et al. Drug Metabol. Disposition, 2005, 33:1852-1858.

[4] = test system: REL-A (p65) nuclear translocation in HeLa cells; assay: REL-A HeLa nuclear translocation assay (TNF-α stimulated, high content imaging); type: cell-based; details: Homo sapiens, 10 ng/mL TNF-α
Experimental: (§1) (3) A third set of cell assays are used to define the selectivity of NIK inhibitors toward inhibition of classical vs. non-classical NF-kB signaling and rely on quantification of the nuclear translocation of p52 (NF-kB2) and REL-A (p65) using high content cellular imaging. For the p52 (non-classical NF-kB signaling) nuclear translocation assay, HeLa cells are treated with different concentrations of compounds (0.2% DMSO final) in medium containing 10% fetal bovine serum and then stimulated with 100 ng/mL of an anti-lymphotoxin beta receptor antibody (R&D Systems) for 5 hours. In the REL-A nuclear translocation assay, HeLa cells are incubated with compounds (0.2% DMSO final) for 4.5 hours in medium containing 10% fetal bovine serum before stimulating them with 10 ng/mL tumor necrosis factor (TNF)-α (R&D Systems) for 30 minutes. Cells are fixed with 4% paraformaldehyde, permeabilized by adding 0.1% Triton X-100 in phosphate buffered saline, and then are incubated with either 2 μg/mL anti-p52 antibody (Millipore) or 400 ng/mL anti-REL-A (p65) antibody (Santa Cruz Biotechnology). Finally, the cells are incubated with an Alexa488-labeled secondary antibody (Invitrogen) and DRAQ5 DNA stain (Biostatus). Imaging is carried out using an Opera reader (Perkin Elmer) and data are analyzed with the aid of Acapella software (Perkin Elmer). The p52 or REL-A translocation into the nucleus is quantified by the ratio of the nuclear to cytoplasmic signal intensity. […] The test compounds have the corresponding inhibitory values (IC50) for NIK REL-A (p65) and p52 Translocation Assays as set forth in Table B2.

[5] = test system: p52 (NF-kB2) nuclear translocation in HeLa cells; assay: p52 HeLa nuclear translocation assay (anti-lymphotoxin beta receptor antibody stimulated); type: cell-based; details: Homo sapiens, 100 ng/mL anti-lymphotoxin beta receptor antibody
Experimental: as §1

nuclear factor-kappa B (NF-kB)-inducing kinase (NIK), sequence (Q99558 whole entry): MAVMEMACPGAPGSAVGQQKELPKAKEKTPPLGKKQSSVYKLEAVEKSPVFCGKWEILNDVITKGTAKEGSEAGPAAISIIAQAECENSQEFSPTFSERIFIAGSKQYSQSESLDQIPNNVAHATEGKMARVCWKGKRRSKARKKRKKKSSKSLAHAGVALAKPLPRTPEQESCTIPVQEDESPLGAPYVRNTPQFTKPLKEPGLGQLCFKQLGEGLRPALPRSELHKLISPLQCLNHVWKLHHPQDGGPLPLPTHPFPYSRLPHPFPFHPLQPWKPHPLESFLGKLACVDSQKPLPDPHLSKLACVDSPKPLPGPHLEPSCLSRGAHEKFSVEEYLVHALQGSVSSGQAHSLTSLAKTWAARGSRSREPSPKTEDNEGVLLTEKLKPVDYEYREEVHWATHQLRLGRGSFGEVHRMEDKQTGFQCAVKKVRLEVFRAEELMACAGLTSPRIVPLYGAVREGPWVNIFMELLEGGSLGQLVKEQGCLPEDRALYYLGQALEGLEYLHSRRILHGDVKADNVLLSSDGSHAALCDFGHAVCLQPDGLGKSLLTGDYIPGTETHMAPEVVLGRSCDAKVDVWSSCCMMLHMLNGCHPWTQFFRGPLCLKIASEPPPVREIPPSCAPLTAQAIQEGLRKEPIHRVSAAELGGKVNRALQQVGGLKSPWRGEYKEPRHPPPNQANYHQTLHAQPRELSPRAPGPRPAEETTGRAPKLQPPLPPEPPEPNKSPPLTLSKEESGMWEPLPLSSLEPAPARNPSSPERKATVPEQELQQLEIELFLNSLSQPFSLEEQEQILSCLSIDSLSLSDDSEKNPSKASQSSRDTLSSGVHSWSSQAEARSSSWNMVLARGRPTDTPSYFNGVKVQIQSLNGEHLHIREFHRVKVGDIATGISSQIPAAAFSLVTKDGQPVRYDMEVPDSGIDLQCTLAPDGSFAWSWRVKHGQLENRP

Structure (SMILES): CN1C(=O)C(O)(C#Cc2cccc(-c3nc(C(N)=O)c(N)s3)c2)C2CC21 (single isomer, unassigned) [5-amino-2-(3-((4-hydroxy-2-methyl-3-oxo-2-azabicyclo[3.1.0]hexan-4-yl)ethynyl)phenyl)thiazole-4-carboxamide]
NIK enzyme inhibition, potency in words relative to the other stereoisomers [1]: less potent NIK enzyme inhibitor than Compound 6

Structure (SMILES): COc1ccn2c(C(N)=O)nc(-c3cccc(C#C[C@@]4(O)C(=O)N(C)[C@H]5C[C@H]54)c3)c2c1 [1-(3-(((1 S,4R,5R)-4-hydroxy-2-methyl-3-oxo-2-azabicyclo[3.1.0]hexan-4-yl)ethynyl)phenyl)-7-methoxyimidazo[1,5-a]pyridine-3-carboxamide]
NIK enzyme inhibition, potency in words relative to the other stereoisomers [1]: second most potent NIK enzyme inhibitor among the 4 stereoisomers

Structure (SMILES): CN1C(=O)[C@](O)(C#Cc2cccc(-c3nc(C(N)=O)n4ccccc34)c2)[C@@H]2C[C@@H]21 [1-(3-(((1 S,4R,5R)-4-hydroxy-2-methyl-3-oxo-2-azabicyclo[3.1.0]hexan-4-yl)ethynyl)phenyl)imidazo[1,5-a]pyridine-3-carboxamide]
NIK enzyme inhibition, potency in words relative to the other stereoisomers [1]: second most potent NIK enzyme inhibitor among the 4 stereoisomers

NIK enzyme inhibition, potency in words relative to the other stereoisomers [1]: no measurable inhibition
Structure (SMILES): CN1C(=O)[C@@](O)(C#Cc2cccc(-n3nc(C(N)=O)c4cccnc43)c2)[C@@H]2C[C@@H]21 [1-(3-(((1 S,4S,5R)-4-hydroxy-2-methyl-3-oxo-2-azabicyclo[3.1.0]hexan-4-yl)ethynyl)phenyl)-1H-pyrazolo[3,4-b]pyridine-3-carboxamide]

NIK enzyme inhibition, potency in words relative to the other stereoisomers [1]: no measurable inhibition
Structure (SMILES): CN1C(=O)[C@@](O)(C#Cc2cccc(-c3nc(C(N)=O)n4ccccc34)c2)[C@@H]2C[C@@H]21 [1-(3-(((1 S,4S,5R)-4-hydroxy-2-methyl-3-oxo-2-azabicyclo[3.1.0]hexan-4-yl)ethynyl)phenyl)imidazo[1,5-a]pyridine-3-carboxamide]

NIK enzyme inhibition, potency in words relative to the other stereoisomers [1]: no measurable inhibition
Structure (SMILES): CN1C(=O)[C@@](O)(C#Cc2cccc(-n3nc(C(N)=O)c4cccnc43)c2)[C@H]2C[C@H]21 [1-(3-(((1R,4S,5S)-4-hydroxy-2-methyl-3-oxo-2-azabicyclo[3.1.0]hexan-4-yl)ethynyl)phenyl)-1H-pyrazolo[3,4-b]pyridine-3-carboxamide]

Structure (SMILES): COc1ccn2c(C(N)=O)nc(-c3cccc(C#C[C@]4(O)C(=O)N(C)[C@@H]5C[C@@H]54)c3)c2c1 [1-(3-(((1R,4S,5S)-4-hydroxy-2-methyl-3-oxo-2-azabicyclo[3.1.0]hexan-4-yl)ethynyl)phenyl)-7-methoxyimidazo[1,5-a]pyridine-3-carboxamide]
NIK enzyme inhibition, potency in words relative to the other stereoisomers [1]: third most potent NIK enzyme inhibitor among the 4 stereoisomers

Structure (SMILES): CN1C(=O)[C@@](O)(C#Cc2cccc(-c3nc(C(N)=O)n4ccccc34)c2)[C@H]2C[C@H]21 [1-(3-(((1R,4S,5S)-4-hydroxy-2-methyl-3-oxo-2-azabicyclo[3.1.0]hexan-4-yl)ethynyl)phenyl)imidazo[1,5-a]pyridine-3-carboxamide]
NIK enzyme inhibition, potency in words relative to the other stereoisomers [1]: third most potent NIK enzyme inhibitor among the 4 stereoisomers

NIK enzyme inhibition, potency in words relative to the other stereoisomers [1]: no measurable inhibition
Structure (SMILES): COc1ccn2c(C(N)=O)nc(-c3cccc(C#C[C@]4(O)C(=O)N(C)[C@H]5C[C@H]54)c3)c2c1 [1-(3-(((1S,4S,5R)-4-hydroxy-2-methyl-3-oxo-2-azabicyclo[3.1.0]hexan-4-yl)ethynyl)phenyl)-7-methoxyimidazo[1,5-a]pyridine-3-carboxamide]

Structure (SMILES): CN1C(=O)[C@](O)(C#Cc2cccc(-c3nc(C(N)=O)c4ccccn34)c2)[C@@H]2C[C@@H]21 [3-(3-(((1 S,4R,5R)-4-hydroxy-2-methyl-3-oxo-2-azabicyclo[3.1.0]hexan-4-yl)ethynyl)phenyl)imidazo[1,5-a]pyridine-1-carboxamide]
NIK enzyme inhibition, potency in words relative to the other stereoisomers [1]: second most potent NIK enzyme inhibitor among the 4 stereoisomers

Structure (SMILES): CN1C(=O)[C@@](O)(C#Cc2cccc(-c3nc(C(N)=O)c4ccccn34)c2)[C@@H]2C[C@@H]21 [3-(3-(((1S,4S,5R)-4-hydroxy-2-methyl-3-oxo-2-azabicyclo[3.1.0]hexan-4-yl)ethynyl)phenyl)imidazo[1,5-a]pyridine-1-carboxamide]
NIK enzyme inhibition, potency in words relative to the other stereoisomers [1]: third most potent NIK enzyme inhibitor among the 4 stereoisomers

Ki [1]: 0.05 nM | HLM CL (human liver microsome clearance) [2]: 12 mL/min/kg | stability in human liver microsomes versus the corresponding pyrrolidinone comparator compound [2]: better stability
Structure (SMILES): COc1ccn2c(C(N)=O)nc(-c3cccc(C#C[C@@]4(O)C(=O)N(C)[C@@H]5C[C@@H]54)c3)c2c1 [Compound 4, 1-(3-(((1R,4R,5S)-4-hydroxy-2-methyl-3-oxo-2-azabicyclo[3.1.0]hexan-4-yl)ethynyl)phenyl)-7-methoxyimidazo[1,5-a]pyridine-3-carboxamide]
NIK enzyme inhibition, potency in words relative to the other stereoisomers [1]: most potent NIK enzyme inhibitor among the 4 stereoisomers

Ki [1]: 0.05 nM | HLM CL (human liver microsome clearance) [2]: 1.6 mL/min/kg | stability in human liver microsomes versus the corresponding pyrrolidinone comparator compound [2]: better stability | Hep CL (human hepatocyte clearance) [3]: 2.7 mL/min/kg
Structure (SMILES): CN1C(=O)[C@](O)(C#Cc2cccc(-c3nc(C(N)=O)c(N)s3)c2)[C@H]2C[C@H]21 [Compound 6, 5-amino-2-(3-(((1R,4R,5S)-4-hydroxy-2-methyl-3-oxo-2-azabicyclo[3.1.0]hexan-4-yl)ethynyl)phenyl)thiazole-4-carboxamide]
NIK enzyme inhibition, potency in words relative to the other stereoisomers [1]: most potent NIK enzyme inhibitor among the 4 stereoisomers

Structure (SMILES): CN1CC[C@@](O)(C#Cc2cccc(-n3nc(C(N)=O)c4cccnc43)c2)C1=O [Compound C-1]
IC50 [4]: > 20000 nM | IC50 [5]: 79.5 nM

Structure (SMILES): CN1CC[C@@](O)(C#Cc2cccc(-c3nc(C(N)=O)c4ccccn34)c2)C1=O [Compound C-5]
IC50 [4]: > 20000 nM | IC50 [5]: 240 nM

Structure (SMILES): CN1CC[C@@](O)(C#Cc2cccc(-c3nc(C(N)=O)c(N)s3)c2)C1=O [Compound C-6, reference compound]
Ki [1]: 0.13 nM | IC50 [4]: > 5000 nM | IC50 [5]: 79.1 nM | HLM CL (human liver microsome clearance) [2]: 5.1 mL/min/kg | Hep CL (human hepatocyte clearance) [3]: 1.1 mL/min/kg
